Measured values taken from patent US5496452A, “Substrate regenerating biosensor” (priority 1990, dated 1996).

Legend:
[1] = target: T1, horseradish peroxidase (HRP) (Armoracia rusticana, UniProt P00433); experiment: Ferrocenes as mediators for HRP reduction: ring current at rotating ring disc electrode; assay type: biochemical; conditions: ferrocene derivative 0.5 mM, HRP 2.5 μM, disc potential -1.2V; for Relative Current: relative to hydroxymethyl ferrocene = 100%
T1 construct: purchased Biozyme
T1 sequence (P00433 31-353): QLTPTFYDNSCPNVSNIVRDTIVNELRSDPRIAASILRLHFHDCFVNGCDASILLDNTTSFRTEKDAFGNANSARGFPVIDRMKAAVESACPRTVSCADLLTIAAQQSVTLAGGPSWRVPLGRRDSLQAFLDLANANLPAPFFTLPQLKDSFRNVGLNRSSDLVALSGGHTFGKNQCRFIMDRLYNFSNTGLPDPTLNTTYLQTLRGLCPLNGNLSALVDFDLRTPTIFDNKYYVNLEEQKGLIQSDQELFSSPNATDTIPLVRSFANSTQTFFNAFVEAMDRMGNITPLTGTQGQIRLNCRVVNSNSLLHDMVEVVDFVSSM
Source text: The electrocatalytic activity of HRP as shown in FIGS. 1 and 2 was typically assessed by immersing the rotating ring disc electrode in a buffered solution containing peroxidase and hydroxymethyl ferrocene mediator. The electrode was rotated at a constant speed to control the transport of material to the disc electrode and subsequently out to the ring. A cathodic potential sweep was applied to the glassy carbon disc at 0.1V/S. The platinum ring was held at constant potential of 0V and the current at the ring as a function of the disc potential was measured. Before determination of the peroxidase generated ring current, following electrode immersion, the ring current (background current) was allowed to stabilize (about 5 min). […] The catalytic current was defined as the net reductive current occurring at a disc potential of 0 volts.
The actual profile of the reduction current seen at the ring electrode is a function of the concentrations of the enzyme and substrates, as well as the rotation rate of the electrode, the sweep rate at the disc and the potential of the ring. The magnitude of this current also depends on the fraction of enzymatically generated ferricinium (oxidized ferrocene) which actually reaches the ring.
(§1) Several ferrocenes shown in Table 1 were tested for their ability to act as mediators for HRP reduction.

[2] = Redox potential (Ep1/2) of ferrocene derivatives; assay type: physicochemical; conditions: ferrocene derivative 0.5 mM; potentials quoted vs SCE
Source text: A four electrode analogue potentiostat (not shown) which is optionally computer controlled is used to control the potentials at the working electrodes (2) and (3). The disc electrode (2) is connected to a triangular wave generator (not shown) for potential sweeps and the ring electrode (3) is connected to a constant DC voltage source. The electrode rotation is controlled by a Ursar Scientific rotator. All potentials are quoted with respect to a saturated calomel electrode (SCE) with a 1 cm^2 platinum gauze serving as the counter electrode.
as §1

Structure (SMILES) | Current (ring current) [1] [mA] | Relative Current [1] [%] | Ep1/2 (redox potential) [2] [mv]
CN(C)Cc1ccc[cH-]1.[Fe+2].c1cc[cH-]c1 [Dimethylaminomethyl Ferrocene] | 0.22 | 6 | 490
OC[c-]1cccc1.[Fe+2].c1cc[cH-]c1 [Hydroxymethyl Ferrocene] | 3.8 | 100 | 210
O=C([O-])[c-]1cccc1.[Fe+2].c1cc[cH-]c1 [Monocarboxylate Ferrocene] | 0.64 | 17 | 295
O=C([O-])[c-]1cccc1.O=C([O-])[c-]1cccc1.[Fe+2] [1,1' Dicarboxylate Ferrocene] | 0.10 | 3 | 420
